Source: patent US12595230B2, “Substituted 6,7-dihydro-5H-benzo[7]annulene compounds and their derivatives, processes for their preparation and therapeutic uses thereof” (Sanofi, priority 2020, dated 2026)

Target: T1, ERα (Homo sapiens, UniProt P03372)
T1 construct: host or cells: MCF7
T1 sequence (P03372 1-595): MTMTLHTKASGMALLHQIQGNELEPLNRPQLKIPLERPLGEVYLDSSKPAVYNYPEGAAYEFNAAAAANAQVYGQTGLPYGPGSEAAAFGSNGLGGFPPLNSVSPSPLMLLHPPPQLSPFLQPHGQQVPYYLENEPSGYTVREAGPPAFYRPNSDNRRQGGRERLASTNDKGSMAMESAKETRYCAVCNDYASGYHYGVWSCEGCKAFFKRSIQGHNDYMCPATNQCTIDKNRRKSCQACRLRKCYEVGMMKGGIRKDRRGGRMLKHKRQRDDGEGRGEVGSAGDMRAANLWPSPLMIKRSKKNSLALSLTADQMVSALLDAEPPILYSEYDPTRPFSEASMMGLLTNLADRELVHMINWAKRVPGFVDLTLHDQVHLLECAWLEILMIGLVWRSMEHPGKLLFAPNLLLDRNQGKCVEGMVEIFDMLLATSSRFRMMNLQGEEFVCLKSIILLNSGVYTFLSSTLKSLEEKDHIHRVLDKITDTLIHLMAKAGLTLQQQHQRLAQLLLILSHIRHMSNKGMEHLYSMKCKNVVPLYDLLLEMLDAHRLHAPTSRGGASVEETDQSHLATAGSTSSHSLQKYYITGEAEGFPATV
Experiment: Estrogen receptor degradation activity: breast cancer cell ERα in cell western assay (MCF7 cells)
Type: cell-based
Conditions: for % Degradation At 0.3 μM: 4 hours, relative to fulvestrant 0.1 μM positive control; for DC50: 4 hours post compound addition, concentration which degrades 50% of the estrogen receptor, read-out: Degradation IC50
Method: Test: Estrogen Receptor Degradation Activity Said test involves measuring the in vitro degradation activity of the compounds of the Table 1a. The measurements of the degradation activities were made using a breast cancer cell ERα in cell western assay as described hereunder. MCF7 cells (ATCC) were seeded in 384 wells microplate (collagen coated) at a concentration of 10000 cells/30 μL per well in red phenol free MEM alpha medium (invitrogen) containing 5% charcoal dextran striped FBS. The following day, 9 points serial 1:5 dilution of each compound was added to the cells in 2.5p L at final concentrations ranging from 0.3-0.0000018 μM (in table 2), or 0.1 μM for fulvestrant (using as positive control). At 4 hours post compound addition the cells were fixed by adding 25 μL of formalin (final concentration 5% formalin containing 0.1% triton) for 10 minutes at room temperature and then washed twice with PBS. Then, 50 μL of LI-COR blocking buffer containing 0.1% Triton was added to plate for 30 minutes at room temperature. LI-COR blocking buffer was removed and cells were incubated overnight at cold room with 50 μL anti-ER rabbit monoclonal antibody (Thermo scientific MA1-39540) diluted at 1:1000 in LI-COR blocking buffer containing 0.1% tween-20. Wells which were treated with blocking buffer but no antibody were used as background control. Wells were washed twice with PBS (0.1% tween-20) and incubated at 37° C. for 60 minutes in LI-COR (0.1% tween-20) containing goat anti-rabbit antibody Alexa 488 (1:1000) and Syto-64 a DNA dye (2 μM final concentration). Cells were then washed 3 times in PBS and scanned in ACUMEN explorer (TTP-Labtech). Integrated intensities in the green fluorescence and red fluorescence were measured to determine the levels of ERα and DNA respectively. The degradation activity with respect to estrogen receptors in this test is given by the concentration which degrades 50% of the estrogen receptor (or IC50) in nM. […] DMSO−fulvestrant)).

SMILES | % Degradation At 0.3 μM [%] | DC50 [nM]
O=C(O)c1ccc2c(c1)CCCC(c1ncc(Cl)cc1Cl)=C2c1ccc(CC2CN(CCCF)C2)cc1 [Example 234, 8-(3,5-dichloropyridin-2-yl)-9-(4-((1-(3-fluoropropyl)azetidin-3-yl)methyl)phenyl)-6,7-dihydro-5H-benzo[7]annulene-3-carboxylic acid] | 84 | 1.3
O=C(O)c1ccc2c(c1)CCCC([C@@H]1C[C@H]1C1CCC(F)(F)CC1)=C2c1ccc(CC2CN(CCCF)C2)cc1 [Example 331, 8-((1R,2S)-2-(4,4-difluorocyclohexyl)cyclopropyl)-9-(4-((1-(3-fluoropropyl)azetidin-3-yl)methyl)phenyl)-6,7-dihydro-5H-benzo[7]annulene-3-carboxylic acid] | 77 | 10.7
Cc1c(Cl)cccc1C1=C(c2ccc(CC3CN(CCC(F)(F)F)C3)cc2)c2ccc(C(=O)O)cc2CCC1 [Example 260, 8-(3-chloro-2-methylphenyl)-9-(4-((1-(3,3,3-trifluoropropyl)azetidin-3-yl)methyl)phenyl)-6,7-dihydro-5H-benzo[7]annulene-3-carboxylic acid] | 86 | 0.6
O=C(O)c1c(F)cc2c(c1F)CCCC(c1ccc(Cl)cc1Cl)=C2c1ccc(CC2CN(CCCF)C2)cc1 [Example 225, 8-(2,4-dichlorophenyl)-2,4-difluoro-9-(4-((1-(3-fluoropropyl)azetidin-3-yl)methyl)phenyl)-6,7-dihydro-5H-benzo[7]annulene-3-carboxylic acid] | 82 | 6.6
COc1c(C(=O)O)ccc2c1CCCC(c1ccc(F)cc1F)=C2c1ccc(CC2CN(CCCF)C2)cc1 [Example 270, 8-(2,4-difluorophenyl)-9-(4-((1-(3-fluoropropyl)azetidin-3-yl)methyl)phenyl)-4-methoxy-6,7-dihydro-5H-benzo[7]annulene-3-carboxylic acid] | 100 | 225
Cc1c(C(=O)O)ccc2c1CCCC(c1ccc(Cl)cc1Cl)=C2c1ccc(CC2CN(CCCF)C2)cc1.Cl [Example 250, 8-(2,4-dichlorophenyl)-9-(4-((1-(3-fluoropropyl)azetidin-3-yl)methyl)phenyl)-4-methyl-6,7-dihydro-5H-benzo[7]annulene-3-carboxylic acid hydrochloride] | 90 | 0.6
Cc1cc(Cl)ccc1C1=C(c2ccc(CC3CN(CCCF)C3)cc2)c2ccc(C(=O)O)cc2OCC1 [Example 263, 4-(4-chloro-2-methylphenyl)-5-(4-((1-(3-fluoropropyl)azetidin-3-yl)methyl)phenyl)-2,3-dihydrobenzo[b]oxepine-8-carboxylic acid] | 90 | 0.8
O=C(O)c1ccc2c(c1)CCCC(c1ccc(Cl)cc1Cl)=C2c1ccc(C(O)C2CN(CCCF)C2)cc1 (single isomer, unassigned) [Example 42, 8-(2,4-dichlorophenyl)-9-(4-((1-(3-fluoropropyl)azetidin-3-yl)(hydroxy)methyl)phenyl)-6,7-dihydro-5H-benzo[7]annulene-3-carboxylic acid] | 94 | 3.3
O=C(O)c1ccc2c(c1)CCC(C1CC1)C(c1ccc(Cl)cc1)=C2c1ccc(CC2CN(CCCF)C2)cc1 (racemic) [Example 324, 8-(4-chlorophenyl)-7-cyclopropyl-9-(4-((1-(3-fluoropropyl)azetidin-3-yl)methyl)phenyl)-6,7-dihydro-5H-benzo[7]annulene-3-carboxylic acid] | 86 | 0.8
COc1cc(C2=C(c3ccc(CC4CN(CCCF)C4)cc3)c3ccc(C(=O)[O-])cc3CCC2)cc(C(F)(F)F)n1.[Na+] [Example 274, sodium 9-(4-((1-(3-fluoropropyl)azetidin-3-yl)methyl)phenyl)-8-(2-methoxy-6-(trifluoromethyl)pyridin-4-yl)-6,7-dihydro-5H-benzo[7]annulene-3-carboxylate] | 84 | 6.5
COc1cc(F)ccc1C1=C(c2ccc(CC3CN(CCCF)C3)cc2)c2ccc(C(=O)O)cc2CCC1 [Example 36, 8-(4-fluoro-2-methoxyphenyl)-9-(4-((1-(3-fluoropropyl)azetidin-3-yl)methyl)phenyl)-6,7-dihydro-5H-benzo[7]annulene-3-carboxylic acid] | 89 | 0.6

The next compounds have a lower DC50 than those just listed; values first:

% Degradation At 0.3 μM [%] | DC50 [nM] | SMILES
94 | 0.4 | Cc1cccc(C2=C(c3ccc(CC4CN(CCCF)C4)cc3)c3ccc(C(=O)O)cc3CCC2)c1Cl [Example 30, 8-(2-chloro-3-methylphenyl)-9-(4-((1-(3-fluoropropyl)azetidin-3-yl)methyl)phenyl)-6,7-dihydro-5H-benzo[7]annulene-3-carboxylic acid]
90 | 0.3 | Cc1cccc(C2=C(c3ccc(CC4CN(CCCF)C4)cc3)c3ccc(C(=O)O)cc3CCC2)c1C(F)(F)F.Cl [Example 313, 9-(4-((1-(3-fluoropropyl)azetidin-3-yl)methyl)phenyl)-8-(3-methyl-2-(trifluoromethyl)phenyl)-6,7-dihydro-5H-benzo[7]annulene-3-carboxylic acid hydrochloride]
93 | 0.4 | Cl.O=C(O)c1ccc2c(c1)CCCC(c1ccc(Cl)cc1Cl)=C2c1ccc(CC2CN(CCCF)C2)cc1F [Example 47, 8-(2,4-dichlorophenyl)-9-(2-fluoro-4-((1-(3-fluoropropyl)azetidin-3-yl)methyl)phenyl)-6,7-dihydro-5H-benzo[7]annulene-3-carboxylic acid]
90 | 0.3 | O=C(O)c1ccc2c(c1)CCCC(c1cc(F)cc(F)c1)=C2c1ccc(CC2CN(CCCF)C2)cc1 [Example 266, 8-(3,5-difluorophenyl)-9-(4-((1-(3-fluoropropyl)azetidin-3-yl)methyl)phenyl)-6,7-dihydro-5H-benzo[7]annulene-3-carboxylic acid]
89 | 0.3 | O=C(O)c1ccc2c(c1)CCCC(c1ccccc1Cl)=C2c1ccc(CC2CN(CCCF)C2)cc1 [Example 3, 8-(2-chlorophenyl)-9-(4-((1-(3-fluoropropyl)azetidin-3-yl)methyl)phenyl)-6,7-dihydro-5H-benzo[7]annulene-3-carboxylic acid]
91 | 0.4 | O=C(O)c1ccc2c(c1)CCCC(c1ccccc1F)=C2c1ccc(CC2CN(CCCF)C2)cc1 [Example 35, 8-(2-fluorophenyl)-9-(4-((1-(3-fluoropropyl)azetidin-3-yl)methyl)phenyl)-6,7-dihydro-5H-benzo[7]annulene-3-carboxylic acid]
94 | 0.2 | Cc1ccc(C2=C(c3ccc(CC4CN(CCCF)C4)cc3)c3ccc(C(=O)O)cc3CCC2)c(C(F)(F)F)c1.Cl [Example 213, 9-(4-((1-(3-fluoropropyl)azetidin-3-yl)methyl)phenyl)-8-(4-methyl-2-(trifluoromethyl)phenyl)-6,7-dihydro-5H-benzo[7]annulene-3-carboxylic acid hydrochloride]
